Experimental data published in a melting point compilation (Tetko et al.; mined from patent text by program, amines drawn as free bases though some values may be those of a salt).

First: O=C1N=C(N2CCCC2)SC1=Cc1ccc(-c2cc(F)c(O)c(C34CC5CC(CC(C5)C3)C4)c2)s1
Second: C=CCOC(=O)c1ccc(OC(=O)c2ccc(O)c(C34CC5CC(CC(C5)C3)C4)c2)cc1
The melting point of the first is higher: 312 to 315 °C for the first, 175 to 177 °C for the second.

First: CNc1nc(Nc2ccc(OCCNC(=O)OC(C)(C)C)cc2)ncc1[N+](=O)[O-]
Second: CC(C)CCOc1c(-c2ccc(S(C)(=O)=O)cc2)cnn(C(C)(C)C)c1=O
The melting point of the first is higher: 205 to 207 °C for the first, 138 to 139 °C for the second.

Compared with `O=C(O)CCc1cn(Cc2ccc(OCc3cccc(-c4cnccn4)c3)cc2)cc1-c1ccccc1`, `COc1cc(COc2nn(Cc3ccccc3)cc2/C=C/C(=O)O)ccc1OCc1nc(-c2ccco2)oc1C` is higher in melting point: 91 to 92 °C for the first, 175 to 176 °C for the second.

First: c1ccc(Oc2cnccc2N2CCNCC2)cc1
Second: O=[N+]([O-])c1cccnc1N1CCNCC1
The melting point of the first is lower: 74 to 77 °C for the first, 79 to 82 °C for the second.

First: COc1cc2c(cc1C(F)(F)F)N(C(=O)Nc1ccc(Cl)c(-c3cccnc3)c1)CC2
Second: Cc1ccc(C(=O)Nc2ccc(CN3CCOCC3)c(C(F)(F)F)c2)cc1-c1ccc2cnncc2c1
The melting point of the first is higher: 210 to 213 °C for the first, 147 to 151 °C for the second.

Compared with `Cc1noc([C@@H](Cc2ccccc2)NC(=O)[C@@H](Cc2ccc3ccccc3c2)NC(=O)C=CC(C)(C)NC(=O)OC(C)(C)C)n1`, `COC(=S)CCC[C@@H](O)[C@@H](c1ccccc1)c1ccc2ccccc2c1` (relative stereo) is lower in melting point: 161 to 167 °C for the first, 90 °C for the second.

First: O=C(O)Cc1ccc(-c2ccc(-c3ccccc3)cc2)o1
Second: O=Cc1cnn(Cc2ccccc2)c1-c1ccccc1
The melting point of the first is higher: 196 to 210 °C for the first, 99 to 100 °C for the second.

First: COC(=O)c1ccc(Cn2c(=O)c3c(N4CCN(C)CC4)cc(Cl)cc3n(Cc3ccccc3)c2=O)cc1
Second: Cc1[nH]c2ccc(CCN3CCN(C)CC3)cc2c1C(=O)OCc1ccccc1
The melting point of the first is lower: 90 to 94 °C for the first, 167 to 168 °C for the second.

Compared with `CCCCNc1cc(C(=O)OC)cc(S(N)(=O)=O)c1Oc1ccccc1`, `COC(=O)CCc1cc2nc(C)ccc2n1S(=O)(=O)c1ccccc1` is lower in melting point: 146 °C for the first, 98 to 115 °C for the second.

Going from `Nc1cc(OCCOCP(=O)(O)O)nc(N)n1` to `Nc1nc2c(ncn2COC(CO)COC(=O)C2(N)CC2)c(=O)[nH]1` (stereo unspecified), the melting point rises from 279 °C to greater than 300 °C.

First: CC(=O)OC(CN(Cc1ccccc1)Cc1ccccc1)c1ccc2c(c1)CCN2C(C)=O (stereo unspecified)
Second: CC(C)c1cccc(C(C)C)c1N1C(=O)C(c2ccccc2)=C(c2ccccc2)C1=O
The melting point of the first is lower: 91 to 92 °C for the first, 233 to 234 °C for the second.

Compared with `COc1ccc(Cl)cc1C(=O)NCCc1ccc(C(C)=CCC(=O)O)cc1`, `Cn1cc(C(=O)NCc2ccc(Cl)cc2)c(=O)c2cc(COCC[C@@H](O)c3ccccc3)sc21` is lower in melting point: 180 to 183 °C for the first, 154 to 156 °C for the second.

First: Brc1ccc(OC2CCN(c3nc4cccc5c4n3CCC5)CC2c2ccccc2)cc1 (stereo unspecified)
Second: CC(=O)c1ccc(-c2ccc(OCc3nc4ccccc4s3)cc2)c(F)c1
The melting point of the first is higher: 188 to 189 °C for the first, 170 to 172 °C for the second.

Compared with `CCCCCCCCCCOCC(O)CO` (stereo unspecified), `O=C(Nc1ccccc1)OCCCCCCCCCCC=C(F)F` is higher in melting point: 38.5 to 39 °C for the first, 54 to 56 °C for the second.

First: O=C(N[C@H]1C[C@H](C(=O)O)Nc2cc(Cl)cc(Cl)c21)C(c1ccccc1)c1ccccc1 (relative stereo)
Second: Cc1cc(C)n(C(=O)C(NS(=O)(=O)c2ccc(Cl)cc2)c2ccccc2)n1 (stereo unspecified)
The melting point of the first is higher: 238 °C for the first, 160 °C for the second.

First: CC(C)(C)C12OOC1(c1ccc(C(=O)N3CCOCC3)c(O)c1)OCC2(C)C (stereo unspecified)
Second: CC(C)(C)OC(=O)N1CCC(c2cn(S(C)(=O)=O)c3ccccc23)CC1
The melting point of the first is lower: 114 to 116 °C for the first, 136 to 137 °C for the second.

Compared with `O=C1c2ccccc2C(=O)N1CCN1CCN(C(c2ccccc2)c2ccccn2)CC1` (stereo unspecified), `COc1cc(Nc2nccc(-c3cccc(OCCCN4C(=O)c5ccccc5C4=O)c3)n2)cc(OC)c1OC` is higher in melting point: 114 to 117 °C for the first, 209 °C for the second.

Compared with `CCCn1nc2c(N)nc3ncccc3c2c1CC(C)(C)C#N`, `Cc1nnc(NCCCN2CCCC2=O)c2c1cc1ccccn12` is higher in melting point: 249 to 252 °C for the first, 257 to 258 °C for the second.

First: CCn1cc(C(=O)O)c(=O)c2c(C)c(F)c(F)c(F)c21
Second: CC(=C1SC(=S)NC1=O)c1ccccc1C(=O)O
The melting point of the first is higher: 203 to 204 °C for the first, 193 to 195 °C for the second.

First: COc1cc(C2CCN(C(=O)CN(C)C)CC2)ccc1Nc1ncc2ccc(-c3ccccc3OC)n2n1
Second: O=C(Nc1ccc(Oc2ccnc(NC3CCC3)n2)c2ccccc12)c1cc(F)cc(N2CCCCC2)c1
The melting point of the first is lower: 78 to 87 °C for the first, 112 to 114 °C for the second.

Compared with `CCOc1cccc(-n2nc(C)c3c(O)c(C(=O)c4ccccc4)cnc32)n1`, `CNC(=O)c1cccc(NC(=O)COc2ccccc2C)c1` is lower in melting point: 160 to 162 °C for the first, 148 °C for the second.

Compared with `CSc1ncc(C=O)c(N)n1`, `COc1cc(OC)nc(NN)n1` is lower in melting point: 184 to 186 °C for the first, 94 °C for the second.

First: CCC(=O)Nc1ccc(C(=O)C=CN(C)C)cc1
Second: CN(C)C(=O)NC(=CC(=O)Nc1cc(F)c(C#N)cc1F)C(F)(F)F
The melting point of the first is higher: 161 to 163 °C for the first, 138 °C for the second.

Compared with `COC(=O)CC(=O)C1CCC2C3CCC4CC(O)CCC4(C)C3C(=O)CC12C` (stereo unspecified), `CCCCS(=O)(=O)NC(CNC(=O)c1cccc(C(=O)C2CCC3(CCNCC3)CC2)c1)C(=O)O` (stereo unspecified) is higher in melting point: 150 to 152 °C for the first, 155 to 157 °C for the second.

First: COc1cc(C(=O)N2CCC(CCN3CCC(C(=O)c4nc5ccccc5n4CCCC(=O)O)CC3)(c3ccc(Cl)c(Cl)c3)C2)cc(OC)c1OC (stereo unspecified)
Second: COc1cc(Nc2nccc(-c3ccc(O)cc3)n2)cc(OC)c1OC
The melting point of the first is lower: 125 to 140 °C for the first, 200 to 202 °C for the second.

First: O=Cc1ccc(S(=O)(=O)CCCl)cc1
Second: N#Cc1ccc(OCCCCl)cc1
The melting point of the first is higher: 70 to 72 °C for the first, 40 to 44 °C for the second.

First: Cc1cc(OC(F)(F)F)cc2sc(N)nc12
Second: CC(=O)Nc1nc2c(Oc3cc(-c4ccc(C(F)(F)F)cc4N)ncn3)cccc2s1
The melting point of the first is higher: 162 °C for the first, 160 to 161 °C for the second.

Compared with `CC(C)c1ccc(C2NCCc3c2[nH]c2ccccc32)cc1` (stereo unspecified), `CC(C)c1nc(-c2ccccc2)n(-c2ccc(F)cc2)c1C=O` is higher in melting point: 146 °C for the first, 159 to 161 °C for the second.

First: CCOC(=O)C1=C(C)NC(=O)N(C(=O)OC(C)C)C1c1cccc([N+](=O)[O-])c1 (stereo unspecified)
Second: CCOC(=O)c1sc(-n2ccc(OCCC3CC3)cc2=O)nc1C
The melting point of the first is lower: 128 to 129 °C for the first, 188 to 190 °C for the second.

First: Cc1cccc2c(=O)[nH]c(N3CCN(C)C(CO)C3)cc12 (stereo unspecified)
Second: Cc1ccccc1NC(=O)CN1C[C@@H](C)N(S(=O)(=O)c2cccc(N)c2)[C@@H](C)C1
The melting point of the first is lower: 184 to 186 °C for the first, 202 to 203 °C for the second.

Compared with `CC(C)(C)c1cc(C=O)c2c(c1O)CCCC2`, `CS(=O)c1n[nH]c(-c2cc(C(C)(C)C)c(O)c(C(C)(C)C)c2)n1` (stereo unspecified) is lower in melting point: 193 to 194 °C for the first, 135 to 145 °C for the second.

Compared with `COCc1cc(C(O)CNCCCCCCOCCc2ccc(OC)cc2)ccc1O` (stereo unspecified), `COc1ccc(CC(=O)Nc2cc(Cl)ccc2O)cc1OC1CCCC1` is higher in melting point: 97.5 to 98.5 °C for the first, 151 to 152 °C for the second.

First: Cc1oc(-c2ccccc2)nc1C(O)c1cc2cc(Br)ccc2o1 (stereo unspecified)
Second: CCCCc1oc2ccccc2c1-c1ncc(-c2ccc3c(Br)c(O)ccc3c2)o1
The melting point of the first is lower: 152 to 154 °C for the first, 172 to 174 °C for the second.

First: COc1ccnc(CSc2nc3ccc(F)cc3[nH]2)c1C
Second: COc1ccccc1-c1n[nH]c2c(Cl)cc(C)nc12
The melting point of the first is lower: 128 °C for the first, 184 to 190 °C for the second.

First: O=c1[nH]c(=O)n(C2COC(CO)C2CO)cc1C=CBr (stereo unspecified)
Second: CNc1ncnc2c1ncn2C1OC(CO)C(O)C1F (stereo unspecified)
The melting point of the first is higher: 142 to 143 °C for the first, 140 °C for the second.

Compared with `COc1ccc(C2CCc3cc(CC(=O)O)cc(Cl)c3N2)cc1` (stereo unspecified), `COc1cc2c(cc1CCNC(=O)Cc1ccccc1)CCC2` is lower in melting point: 140 to 141 °C for the first, 135 °C for the second.

Compared with `Cc1nc(-c2ccc(S(C)(=O)=O)cc2)c(-c2ccc(F)cc2)s1`, `C[C@@H](NC(=O)c1nsc(-c2ccc(Cl)cc2)n1)[C@](O)(Cn1cncn1)c1ccc(F)cc1F` is higher in melting point: 134 to 135 °C for the first, 186 to 187 °C for the second.

Compared with `O=C(NCc1ccc(Cl)cc1)c1cnc2c(F)cc(-c3cc(Br)cs3)cc2c1O`, `Cc1sc(C(=O)NCc2ccc3c(c2)OCO3)cc1NC(=O)NCc1ccccc1` is lower in melting point: 281 to 283 °C for the first, 194 to 195 °C for the second.

Compared with `CCc1cc2cc(OC)ccc2[nH]1`, `C[C@@H]1CNC(=O)c2cc3ccc(C(F)(F)F)cc3n21` is higher in melting point: 49 to 50 °C for the first, 201 to 204 °C for the second.

First: Cc1cn(-c2cc(NC(=O)c3cccc4cc(Oc5ccnc(N)c5)ccc34)cc(C(F)(F)F)c2)cn1
Second: O=C(Nc1cccc(C(F)(F)F)c1)c1ccccc1C(c1ccc(O)cc1)c1ccc(O)cc1
The melting point of the first is higher: 236 to 239 °C for the first, 198 to 200 °C for the second.

First: CCNC(=O)Nc1ccc(-c2cc3c(Nc4cccc(Cl)c4)ncnc3[nH]2)cc1
Second: COc1ccc(-c2coc3ccc(-c4nnc(SCc5cccc(C#N)c5)o4)cc23)cc1
The melting point of the first is higher: greater than 290 °C for the first, 145 to 146 °C for the second.

Compared with `O=C(O)c1cccc2cc3ccccc3nc12`, `CC(Cc1cccc(N)c1)(NC=O)c1ccccc1` (stereo unspecified) is lower in melting point: 202 to 204 °C for the first, 114 to 115 °C for the second.

First: CN1CCN(c2cnc3ccccc3n2)CC1
Second: O=c1c(Br)c(N2CCOCC2)oc2ccccc12
The melting point of the first is lower: 109 to 111 °C for the first, 145 to 146 °C for the second.

Compared with `Cn1ccc(Nc2ccc([N+](=O)[O-])cc2[N+](=O)[O-])n1`, `CC1(C)C(=O)N(c2ccc([N+](=O)[O-])c(C(F)(F)F)c2)C(=O)N1CCCCN1C(=O)N(c2ccc([N+](=O)[O-])c(C(F)(F)F)c2)C(=O)C1(C)C` is higher in melting point: 150 °C for the first, 211 to 212 °C for the second.

First: O=C1C(=c2[nH]c(=c3[nH]c(=C4C(=O)N(c5ccccc5)C(=O)N(c5ccccc5)C4=O)c4ccccc34)c3ccccc23)C(=O)N(c2ccccc2)C(=O)N1c1ccccc1
Second: O=C(O)CN1CCCC(n2nc(-c3c(-c4ccccc4)nn4ccccc34)ccc2=O)C1=O (stereo unspecified)
The melting point of the first is higher: greater than 300 °C for the first, 145 to 150 °C for the second.

First: Cc1ccc2c(=O)cc(CS(C)=O)oc2c1C (stereo unspecified)
Second: Cc1cccc(OC(F)F)c1NC(=O)CCl
The melting point of the first is higher: 205 to 209 °C for the first, 85 to 86 °C for the second.

First: CN(c1nc(Nc2ccc(O)cc2)nc(NC2CCCCCC2)n1)C1CCNCC1
Second: CC(=O)S[C@H]1CC[C@H](/C=C/C=C/c2ccc(C(F)(F)F)cc2)CC1
The melting point of the first is higher: 130 °C for the first, 113 to 115 °C for the second.

First: COc1cc(OC)c2c(c1)OC(C(C)(C)C(N)=O)CC2=O (stereo unspecified)
Second: COC1(NC(=O)NS(=O)(=O)c2cccc(N=C=O)c2)C=C(C)N=CN1 (stereo unspecified)
The melting point of the first is higher: 161 to 163 °C for the first, 147 to 157 °C for the second.
